From patent publication US6407081B1, “Method for inhibiting cytokine production by cells” (Previsan AG, priority 1997, dated 2002)

Columns and labels:
IFN-γ [1] = experiment: Interferon-γ production by purified T lymphocytes (Example 3); type: cell-based, human; settings: mean of 3 donors
Description: (§1) PBMC from three healthy donors are purified by density gradient […] (LymphoPrep). The T lymphocytes are obtained from 15.10^6 PBMC incubated for 20 to 30 minutes in a waterbath at 37° C. with 0.8 ml of a mixture of LymphoKwik® (One Lambda, Inc., CA, USA). This latter substance is a mixture of complement and specific antibody for antigen units of the cell membrane which lyses the unwanted cells (B lymphocytes, monocytes, etc.). The cells are centrifuged and then washed twice.
(§2) These cultures are treated with various concentrations of ADA.
(§3) In Examples 3 and 4, the results are stated as a percentage taking the medium without ADA as 100%. The concentrations corresponding to 100% are respectively 90,000 pg/ml for IL-2, 1100 pg/ml for IL-5, 1900 pg/ml for IFN-γ and 2870 pg/ml for TNF-α. The results are the mean of independent ELISA assays.

IL-2 [2] = experiment: IL-2 production by purified CD4 T lymphocytes stimulated by PMA + anti-CD28 (Example 4); type: cell-based, human; settings: for IL-2 in % relative to control: purified CD4 T lymphocytes, PMA + anti-CD28, mean of 2 donors
Description: (§4) Purified CD4 T lymphocytes (90% purity) stimulated by PMA (phorbol myristate acetate)+anti-CD28 antibodies from healthy donors are treated with various concentrations of ADA.
as §3

interferon-γ = experiment: Interferon-γ production by PHA-activated PBMC (Example 2); type: cell-based, human; settings: for Interferon-γ content as a percentage of the control: PHA-activated PBMC, 72 h
Description: Peripheral mononuclear blood cells (PMBC) from five healthy human donors are isolated in the conventional manner from 50 ml of their blood and then purified by density gradient centrifugation (Lymphoprep). The cells (5.10^6 cells/ml) are activated by 0.3 μg/ml of phytohaemagglutinin (PHA) and cultured for 72 hours at 37° C. in the presence of various concentrations of ADA (20, 10, 5, 1, 0.2 and 0.04 μg/ml). The culture medium consists of RPMI 1640 complemented with 10% foetal calf serum and glutamine and contains mercaptoethanol. The ADA solutions are prepared in dimethyl sulfoxide (DMSO), the working concentration of DMSO during the experiments being 0.1%. Said experiments are performed on 96 well plates (200 μl/well) and, once the plates have been centrifuged at 1500 revolutions per minute for 10 minutes, the supernatants are harvested and the IL-5 content thereof analysed by an ELISA immunoenzymatic assay.
Starting from the same cell cultures as those used in Example 1, the presence of interferon-γ was investigated after treatment with the stated concentrations of ADA.

skin allograft = experiment: Skin allograft rejection (Example 6); type: in vivo, C57BL/6 mice; settings: ADA 50 mg/kg daily injection vs carrier control; FIG. 3
Description: Skin grafts, which are well known to be highly dependent upon T cells, are prepared from the tails of four female C57BL/6. CH-2^bm12 mice (Jackson Laboratory, Bar Harbor, Me., USA). These grafts are grafted onto the sides of C57BL/6 mice (Harlan, Zeist, Netherlands). A dressing is applied around the hole. This dressing is removed 10 days later and the grafts are inspected daily. The test mice receive a daily intraparenteral injection of 50 mg/kg bodyweight of ADA and the controls receive an equivalent quantity of the corresponding carrier until acute rejection is observed.
On the graph in FIG. 3, survival of the skin graft is plotted, in %, on the y-axis, while the number of days since the transplant is plotted on the x-axis.

[3] = test system: Peripheral mononuclear blood cells (PMBC); experiment: Cytotoxic effects on the PBMC cultures of Examples 1 and 2; type: cell-based, human; settings: at the ADA concentrations reducing cytokine production in Examples 1 and 2
IL-2 [4] = experiment: IL-2 production by purified T lymphocytes (Example 3); type: cell-based, human; settings: mean of 2 donors
Description: as §1, §2, §3

IL-5 = IL-5 production by purified CD4 T lymphocytes stimulated by PMA + anti-CD28 (Example 4); type: cell-based, human; settings: for IL-5 in % relative to control: purified CD4 T lymphocytes, PMA + anti-CD28, 1 donor
Description: as §4, §3

IL-4 = experiment: In vivo serum IL-4 release after anti-CD3 145-2C11 mAb (Example 5); set-up: species or system BALB/C mice; settings: ADA 100 mg/kg single injection one day before 145-2C11 mAb; sera at 2, 4, 8, 24 h; FIG. 2
Description: A single intraparenteral injection of azodicarbon-amide (ADA) at a dose of 100 mg/kg bodyweight or corresponding carrier is made into BALB/C mice (Harlan, Zeist, Netherlands) one day before intraparenteral inoculation of 25 μg of hamster 145-2C11 mAb, an anti-mouse CD3 mAb which brings about massive in vivo activation of polyclonal T cells, resulting in systemic cytokine release. Sera are collected 2, 4, 8 and 24 hours after the anti-CD3 treatment and the cytokine (IL-2, IL-4) levels are determined by an ELISA test (Genzyme).
FIGS. 1 and 2 are graphs showing, on the y-axis, the quantities of IL-2 and IL-4 in the serum as a mean of 5 test animals. […] The empty bars show the results obtained with the carrier and the shaded bars show those obtained with prior ADA treatment.

IFN-γ [5] = experiment: Interferon-γ production by purified CD4 T lymphocytes stimulated by PMA + anti-CD28 (Example 4); type: cell-based, human; settings: for IFN-γ in % relative to control: purified CD4 T lymphocytes, PMA + anti-CD28, mean of 2 donors
Description: as §4, §3

[6] = 20 μg/ml of ADA, donors of Examples 3 and 4

SMILES: NC(=O)N=NC(N)=O [ADA, azodicarbon-amide]
- IFN-γ in % relative to control (IFN-γ [1]; ADA 1 μg/ml): 82 % relative to control
- IFN-γ in % relative to control (IFN-γ [1]; ADA 5 μg/ml): 34 % relative to control
- IFN-γ in % relative to control (IFN-γ [1]; ADA 10 μg/ml): 14 % relative to control
- IFN-γ in % relative to control (IFN-γ [1]; ADA 20 μg/ml): 4 % relative to control
- IL-2 in % relative to control (IL-2 [2]; ADA 1 μg/ml): 82 % relative to control
- IL-2 in % relative to control (IL-2 [2]; ADA 5 μg/ml): 30 % relative to control
- IL-2 in % relative to control (IL-2 [2]; ADA 10 μg/ml): 18 % relative to control
- IL-2 in % relative to control (IL-2 [2]; ADA 20 μg/ml): 10 % relative to control
- secretion of IL-2 by lymphocytes (IL-2 [2]; concentrations lower than 20 μg/ml of ADA, Examples 3 and 4): Even lower concentrations inhibit
- Interferon-γ content as a percentage of the control (interferon-γ; ADA 0.04 μg/ml, Donor 1): 62 % of control
- Interferon-γ content as a percentage of the control (interferon-γ; ADA 0.04 μg/ml, Donor 2): 53 % of control
- Interferon-γ content as a percentage of the control (interferon-γ; ADA 0.04 μg/ml, Donor 3): 99 % of control
- Interferon-γ content as a percentage of the control (interferon-γ; ADA 0.04 μg/ml, Donor 4): 82 % of control
- Interferon-γ content as a percentage of the control (interferon-γ; ADA 0.04 μg/ml, Donor 5): 38 % of control
- Interferon-γ content as a percentage of the control (interferon-γ; ADA 0.04 μg/ml, Mean of donors): 67 % of control
- Interferon-γ content as a percentage of the control (interferon-γ; ADA 0.2 μg/ml, Donor 1): 112 % of control
- Interferon-γ content as a percentage of the control (interferon-γ; ADA 0.2 μg/ml, Donor 2): 111 % of control
- Interferon-γ content as a percentage of the control (interferon-γ; ADA 0.2 μg/ml, Donor 3): 70 % of control
- Interferon-γ content as a percentage of the control (interferon-γ; ADA 0.2 μg/ml, Mean of donors (donors 4, 5 not given)): 98 % of control
- Interferon-γ content as a percentage of the control (interferon-γ; ADA 1 μg/ml, Donor 1): 87 % of control
- Interferon-γ content as a percentage of the control (interferon-γ; ADA 1 μg/ml, Donor 2): 98 % of control
- Interferon-γ content as a percentage of the control (interferon-γ; ADA 1 μg/ml, Donor 3): 49 % of control
- Interferon-γ content as a percentage of the control (interferon-γ; ADA 1 μg/ml, Mean of donors (donors 4, 5 not given)): 78 % of control
- Interferon-γ content as a percentage of the control (interferon-γ; ADA 5 μg/ml, Donor 1): 68 % of control
- Interferon-γ content as a percentage of the control (interferon-γ; ADA 5 μg/ml, Donor 2): 128 % of control
- Interferon-γ content as a percentage of the control (interferon-γ; ADA 5 μg/ml, Donor 3): 62 % of control
- Interferon-γ content as a percentage of the control (interferon-γ; ADA 5 μg/ml, Donor 4): 57 % of control
- Interferon-γ content as a percentage of the control (interferon-γ; ADA 5 μg/ml, Donor 5): 25 % of control
- Interferon-γ content as a percentage of the control (interferon-γ; ADA 5 μg/ml, Mean of donors): 68 % of control
- Interferon-γ content as a percentage of the control (interferon-γ; ADA 10 μg/ml, Donor 1): 23 % of control
- Interferon-γ content as a percentage of the control (interferon-γ; ADA 10 μg/ml, Donor 2): 169 % of control
- Interferon-γ content as a percentage of the control (interferon-γ; ADA 10 μg/ml, Donor 3): 43 % of control
- Interferon-γ content as a percentage of the control (interferon-γ; ADA 10 μg/ml, Mean of donors (donors 4, 5 not given)): 78 % of control
- Interferon-γ content as a percentage of the control (interferon-γ; ADA 20 μg/ml, Donor 1): 21 % of control
- Interferon-γ content as a percentage of the control (interferon-γ; ADA 20 μg/ml, Donor 2): 86 % of control
- Interferon-γ content as a percentage of the control (interferon-γ; ADA 20 μg/ml, Donor 3): 40 % of control
- Interferon-γ content as a percentage of the control (interferon-γ; ADA 20 μg/ml, Donor 4): 25 % of control
- Interferon-γ content as a percentage of the control (interferon-γ; ADA 20 μg/ml, Donor 5): 16 % of control
- Interferon-γ content as a percentage of the control (interferon-γ; ADA 20 μg/ml, Mean of donors): 38 % of control
- inhibition of interferon-γ production, number of donors (interferon-γ; PBMC of 5 donors, ADA 0.04-20 μg/ml): inhibition is observed in 4 out of 5 donors
- rejection of the skin allograft (skin allograft): significantly delayed
- cytotoxic effects [3]: no cytotoxic effects
- IL-2 in % relative to control (IL-2 [4]; ADA 1 μg/ml): 68 % relative to control
- IL-2 in % relative to control (IL-2 [4]; ADA 5 μg/ml): 27 % relative to control
- IL-2 in % relative to control (IL-2 [4]; ADA 10 μg/ml): 9 % relative to control
- IL-2 in % relative to control (IL-2 [4]; ADA 20 μg/ml): 3 % relative to control
- production of IL-5 (IL-5; [6]): inhibited
- IL-5 in % relative to control (IL-5; ADA 1 μg/ml): 69 % relative to control
- IL-5 in % relative to control (IL-5; ADA 5 μg/ml): 45 % relative to control
- IL-5 in % relative to control (IL-5; ADA 10 μg/ml): 43 % relative to control
- IL-5 in % relative to control (IL-5; ADA 20 μg/ml): 38 % relative to control
- release of IL-4 into serum (IL-4): significant reduction
- production of interferon-γ (IFN-γ [5]; [6]): inhibited
- IFN-γ in % relative to control (IFN-γ [5]; ADA 1 μg/ml): 73 % relative to control
- IFN-γ in % relative to control (IFN-γ [5]; ADA 5 μg/ml): 36 % relative to control
- IFN-γ in % relative to control (IFN-γ [5]; ADA 10 μg/ml): 15 % relative to control
- IFN-γ in % relative to control (IFN-γ [5]; ADA 20 μg/ml): 12 % relative to control
